This note sets out measurements from patent US20260193264A1, “BENZOYPARAZINE PYRAZINES AND THEIR USES” (FOGHORN THERAPEUTICS INC., priority 2022, published 2026).

Assay [1] concerns the target T1, HiBiT-BRM fusion protein in stable HeLa cell line (Homo sapiens, UniProt P51531).
T1 construct: expressed in transfected cells
In words: HiBiT-BRM cell-based degradation assay (Nano-Glo HiBiT Lytic Detection, 24 h). Details: DC50: scale not given here. Particulars: HeLa HiBiT-BRM cells; for DC50: read-out: BRM HiBit Degradation IC50; for BRM HiBit Degradation Maximum (%): top dose 30 μM. The procedure, abridged:
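HiBiT-tagged BRM levels in a stable HeLa line are measured after one day of compound treatment (up to 30 μM final, duplicate 10-point curves) by adding LgBiT lytic reagent and reading bioluminescence; values are expressed relative to vehicle and a 2 μM degrader control.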

In assay [2] the target is T2, HiBit-BRG1 fusion protein in stable HeLa cell line expressing HiBit-BRG1 and LgBit (Homo sapiens, UniProt P51532).
T2 construct: expressed in transfected cells
T2 sequence (P51532 whole entry, the tested form may be a part): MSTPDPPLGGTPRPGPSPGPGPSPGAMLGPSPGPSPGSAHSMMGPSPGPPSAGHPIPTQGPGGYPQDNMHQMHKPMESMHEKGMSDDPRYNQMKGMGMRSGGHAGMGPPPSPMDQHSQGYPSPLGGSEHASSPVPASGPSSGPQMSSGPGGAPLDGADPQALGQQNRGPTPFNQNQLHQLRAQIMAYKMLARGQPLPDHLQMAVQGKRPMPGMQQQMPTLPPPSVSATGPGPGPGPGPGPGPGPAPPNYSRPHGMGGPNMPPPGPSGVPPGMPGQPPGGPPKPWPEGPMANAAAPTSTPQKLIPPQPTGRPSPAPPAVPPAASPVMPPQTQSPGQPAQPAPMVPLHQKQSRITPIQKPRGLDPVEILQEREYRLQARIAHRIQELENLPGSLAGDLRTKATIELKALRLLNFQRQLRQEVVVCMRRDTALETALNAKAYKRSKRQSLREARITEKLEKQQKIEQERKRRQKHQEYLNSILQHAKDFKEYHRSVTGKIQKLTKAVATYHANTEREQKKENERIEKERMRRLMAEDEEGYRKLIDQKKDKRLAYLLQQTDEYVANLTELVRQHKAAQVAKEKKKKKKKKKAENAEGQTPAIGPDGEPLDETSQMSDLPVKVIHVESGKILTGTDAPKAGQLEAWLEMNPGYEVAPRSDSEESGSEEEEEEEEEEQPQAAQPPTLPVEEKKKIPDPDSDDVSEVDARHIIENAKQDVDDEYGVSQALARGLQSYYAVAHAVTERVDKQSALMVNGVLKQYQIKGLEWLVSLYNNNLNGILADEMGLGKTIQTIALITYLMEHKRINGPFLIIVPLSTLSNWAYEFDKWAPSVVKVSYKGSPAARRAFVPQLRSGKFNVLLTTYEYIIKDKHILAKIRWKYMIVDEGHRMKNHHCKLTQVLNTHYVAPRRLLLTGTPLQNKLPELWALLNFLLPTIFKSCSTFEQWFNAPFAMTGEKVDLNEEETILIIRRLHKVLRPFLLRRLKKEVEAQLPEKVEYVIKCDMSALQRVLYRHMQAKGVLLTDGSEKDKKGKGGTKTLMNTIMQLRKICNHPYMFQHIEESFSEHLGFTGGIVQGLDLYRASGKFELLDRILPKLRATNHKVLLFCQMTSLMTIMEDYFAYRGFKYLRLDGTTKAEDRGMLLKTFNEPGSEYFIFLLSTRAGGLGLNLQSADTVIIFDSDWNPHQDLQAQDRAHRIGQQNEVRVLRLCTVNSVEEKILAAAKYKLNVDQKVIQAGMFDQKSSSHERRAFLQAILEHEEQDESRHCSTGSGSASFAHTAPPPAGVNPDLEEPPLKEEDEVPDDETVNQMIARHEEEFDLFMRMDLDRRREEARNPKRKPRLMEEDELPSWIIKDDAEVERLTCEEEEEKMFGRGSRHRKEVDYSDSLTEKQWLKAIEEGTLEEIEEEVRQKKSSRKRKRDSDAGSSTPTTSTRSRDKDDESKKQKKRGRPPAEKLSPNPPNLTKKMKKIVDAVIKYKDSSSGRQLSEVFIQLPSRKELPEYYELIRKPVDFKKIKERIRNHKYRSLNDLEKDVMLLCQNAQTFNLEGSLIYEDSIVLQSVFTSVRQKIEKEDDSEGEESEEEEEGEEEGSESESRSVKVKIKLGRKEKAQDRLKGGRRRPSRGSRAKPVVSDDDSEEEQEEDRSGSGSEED
In words: HiBiT-BRG1 cell-based degradation assay (Nano-Glo HiBiT, 24 h). Particulars: HeLa HiBit-BRG1/LgBit cells; for Dmax: read-out: BRG1 HiBit Degradation Maximum (%); for DC50: read-out: BRMG1 HiBit Degradation IC50. The procedure, abridged: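 Degradation calculated from NanoBiT luminescence relative to DMSO-treated cells (high) and cells given 2 μM known BRM/BRG1 degrader (low). HeLa cells stably expressing HiBiT-BRG1 plus LgBiT were exposed to compound for 24 h before lytic HiBiT detection.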
In general terms: The HiBiT peptide binds its large partner to form an active luciferase.

T1 sequence (P51531 whole entry, the tested form may be a part): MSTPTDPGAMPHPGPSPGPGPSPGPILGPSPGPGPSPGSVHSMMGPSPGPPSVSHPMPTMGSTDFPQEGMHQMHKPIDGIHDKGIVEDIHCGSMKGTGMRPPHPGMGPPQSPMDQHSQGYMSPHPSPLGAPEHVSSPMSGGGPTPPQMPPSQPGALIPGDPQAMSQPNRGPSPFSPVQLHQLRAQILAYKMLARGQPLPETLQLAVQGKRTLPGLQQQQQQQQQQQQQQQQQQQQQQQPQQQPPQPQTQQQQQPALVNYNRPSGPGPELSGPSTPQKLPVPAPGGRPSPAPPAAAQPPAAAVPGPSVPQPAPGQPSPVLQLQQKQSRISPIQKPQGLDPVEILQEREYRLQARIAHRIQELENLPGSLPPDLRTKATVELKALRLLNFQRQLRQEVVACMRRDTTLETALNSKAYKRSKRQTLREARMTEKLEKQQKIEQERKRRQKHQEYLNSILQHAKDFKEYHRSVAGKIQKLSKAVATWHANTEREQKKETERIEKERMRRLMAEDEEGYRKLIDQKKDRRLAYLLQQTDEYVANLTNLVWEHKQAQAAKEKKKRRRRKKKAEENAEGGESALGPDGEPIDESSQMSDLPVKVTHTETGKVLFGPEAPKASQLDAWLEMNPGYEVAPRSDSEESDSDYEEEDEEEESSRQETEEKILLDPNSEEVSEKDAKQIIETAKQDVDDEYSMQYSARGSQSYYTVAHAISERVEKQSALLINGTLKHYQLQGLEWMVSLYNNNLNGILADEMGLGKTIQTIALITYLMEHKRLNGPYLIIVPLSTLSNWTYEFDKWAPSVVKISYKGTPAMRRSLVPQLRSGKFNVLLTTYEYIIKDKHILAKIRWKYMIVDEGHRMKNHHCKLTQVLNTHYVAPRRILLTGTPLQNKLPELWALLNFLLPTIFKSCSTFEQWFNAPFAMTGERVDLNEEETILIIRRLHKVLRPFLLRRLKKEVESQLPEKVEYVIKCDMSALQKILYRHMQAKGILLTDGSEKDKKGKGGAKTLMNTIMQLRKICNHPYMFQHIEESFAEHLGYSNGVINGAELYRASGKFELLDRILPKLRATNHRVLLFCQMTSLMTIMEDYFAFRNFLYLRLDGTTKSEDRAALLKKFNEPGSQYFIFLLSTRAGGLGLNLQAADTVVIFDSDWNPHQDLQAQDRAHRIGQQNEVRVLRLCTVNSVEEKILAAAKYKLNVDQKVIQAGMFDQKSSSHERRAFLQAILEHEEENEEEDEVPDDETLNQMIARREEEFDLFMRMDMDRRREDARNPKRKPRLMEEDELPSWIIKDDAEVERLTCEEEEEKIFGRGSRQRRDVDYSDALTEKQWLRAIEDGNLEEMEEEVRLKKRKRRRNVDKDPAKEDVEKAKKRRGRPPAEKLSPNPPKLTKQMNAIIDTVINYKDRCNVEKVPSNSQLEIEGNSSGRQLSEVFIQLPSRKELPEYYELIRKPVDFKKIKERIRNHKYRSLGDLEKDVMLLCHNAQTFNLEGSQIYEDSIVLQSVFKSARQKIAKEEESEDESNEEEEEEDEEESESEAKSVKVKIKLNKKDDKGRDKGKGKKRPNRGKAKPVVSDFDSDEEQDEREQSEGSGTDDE

As to `Cc1ncsc1-c1ccc(C(C)NC(=O)C2CC(O)CN2C(=O)[C@@H](c2cc(N3CCN([C@@H]4CCN(Cc5cc6nnc(-c7ccccc7O)cc6cc5Cl)CC4(F)F)CC3)no2)C(C)C)cc1` (stereo in doubt) [Compound 215, (2R,4S)-1-((R)-2-(3-(4-((R)-1-((6-chloro-3-(2-hydroxyphenyl)cinnolin-7-yl)methyl)-3,3-difluoropiperidin-4-yl)piperazin-1-yl)isoxazol-5-yl)-3-methylbutanoyl)-4-hydroxy-N-((R)-1-(4-(4-methylthiazol-5-yl)phenyl)ethyl)pyrrolidine-2-carboxamide], in assay [1], the DC50 was under 10 nM and the “BRM HiBit Degradation Maximum (%)” value is “A (“A” indicates maximum degradation ≥75%)”. Further, in assay [2] (top dose 30 μM), the Dmax is under 50%.
For the compound `C#Cc1ccc([C@H](C)NC(=O)[C@@H]2C[C@@H](O)CN2C(=O)[C@H](C(C)C)n2cc(N3CC4(CN(c5ccc6cc(-c7ccccc7O)nnc6c5)C4)C3)nn2)cc1` [Compound 254, (2S,4R)-N-((S)-1-(4-ethynylphenyl)ethyl)-4-hydroxy-1-((S)-2-(4-(6-(3-(2-hydroxyphenyl)cinnolin-7-yl)-2,6-diazaspiro[3.3]heptan-2-yl)-1H-1,2,3-triazol-1-yl)-3-methylbutanoyl)pyrrolidine-2-carboxamide], in assay [1], the DC50 was under 10 nM and the “BRM HiBit Degradation Maximum (%)” value is on record as “A (“A” indicates maximum degradation ≥75%)”. Also, in assay [2] (top dose 30 μM), the Dmax was under 50%.
For `Cc1ncsc1-c1ccc([C@H](C)NC(=O)[C@@H]2C[C@@H](O)CN2C(=O)[C@@H](c2cc(-c3ccnc(N4CCC(c5ccc6cc(-c7ccccc7O)nnc6c5)CC4)n3)no2)C(C)C)cc1` [Compound 52, (2S,4R)-4-hydroxy-1-((R)-2-(3-(2-(4-(3-(2-hydroxyphenyl)cinnolin-7-yl)piperidin-1-yl)pyrimidin-4-yl)isoxazol-5-yl)-3-methylbutanoyl)-N-((S)-1-(4-(4-methylthiazol-5-yl)phenyl)ethyl)pyrrolidine-2-carboxamide], the values for the DC50 in assay [1] and in assay [2] were under 10 nM and over 10 nM, respectively. For the same compound, in assay [1], the “BRM HiBit Degradation Maximum (%)” value is on record as “A (“A” indicates maximum degradation ≥75%)”. Besides, the Dmax in assay [2] (top dose 30 μM) was over 75%.
Consider `Cc1cc(-c2cc([C@H](C(=O)N3C[C@H](O)C[C@H]3C(=O)N[C@@H](C)c3ccc(-c4scnc4C)cc3)C(C)C)on2)cnc1N1CCC(c2ccc3cc(-c4ccccc4O)nnc3c2)CC1` [Compound 88, (2S,4R)-4-hydroxy-1-((R)-2-(3-(6-(4-(3-(2-hydroxyphenyl)cinnolin-7-yl)piperidin-1-yl)-5-methylpyridin-3-yl)isoxazol-5-yl)-3-methylbutanoyl)-N-((S)-1-(4-(4-methylthiazol-5-yl)phenyl)ethyl)pyrrolidine-2-carboxamide], for which, in assay [1], the DC50 was under 10 nM and the “BRM HiBit Degradation Maximum (%)” value is given as “A (“A” indicates maximum degradation ≥75%)”. The Dmax in assay [2] (top dose 30 μM) is under 50%.
For `Cc1ncsc1-c1ccc([C@H](C)NC(=O)[C@@H]2C[C@@H](O)CN2C(=O)[C@@H](c2cc(N3CCOC4(CN(c5ccc6cc(-c7ccccc7O)nnc6c5)C4)C3)no2)C(C)C)cc1` [Compound 162, (2S,4R)-4-hydroxy-1-((R)-2-(3-(2-(3-(2-hydroxyphenyl)cinnolin-7-yl)-5-oxa-2,8-diazaspiro[3.5]nonan-8-yl)isoxazol-5-yl)-3-methylbutanoyl)-N-((S)-1-(4-(4-methylthiazol-5-yl)phenyl)ethyl)pyrrolidine-2-carboxamide], in assay [1], the DC50 was under 10 nM and the “BRM HiBit Degradation Maximum (%)” value was “A (“A” indicates maximum degradation ≥75%)”. Moreover, in assay [2], the DC50 is under 10 nM. Further, in assay [2] (top dose 30 μM), the Dmax was over 75%.
With `Cc1ncsc1-c1ccc([C@H](C)NC(=O)[C@@H]2C[C@@H](O)CN2C(=O)[C@@H](c2cc(N3CC4(CN(c5ccc6nnc(-c7ccccc7O)cc6c5)C4)C3)no2)C(C)C)cc1` [Compound 66, (2S,4R)-4-hydroxy-1-((R)-2-(3-(6-(3-(2-hydroxyphenyl)cinnolin-6-yl)-2,6-diazaspiro[3.3]heptan-2-yl)isoxazol-5-yl)-3-methylbutanoyl)-N-((S)-1-(4-(4-methylthiazol-5-yl)phenyl)ethyl)pyrrolidine-2-carboxamide], in assay [1], the DC50 was under 10 nM and the “BRM HiBit Degradation Maximum (%)” value is reported as “A (“A” indicates maximum degradation ≥75%)”. The Dmax in assay [2] (top dose 30 μM) was under 50%.
For `CC(C)[C@@H](C(=O)N1C[C@H](O)C[C@H]1C(=O)N[C@@H](C)c1ccccc1F)c1cc(N2CC3(CN(c4ccc5cc(-c6ccccc6O)nnc5c4)C3)C2)no1` [Compound 110, (2S,4R)-N-((S)-1-(2-fluorophenyl)ethyl)-4-hydroxy-1-((R)-2-(3-(6-(3-(2-hydroxyphenyl)cinnolin-7-yl)-2,6-diazaspiro[3.3]heptan-2-yl)isoxazol-5-yl)-3-methylbutanoyl)pyrrolidine-2-carboxamide], in assay [1], the DC50 was under 10 nM and the “BRM HiBit Degradation Maximum (%)” value is on record as “A (“A” indicates maximum degradation ≥75%)”. In assay [2] (top dose 30 μM), the Dmax is under 50%.
For the compound `Cc1ncsc1-c1ccc([C@H](C)NC(=O)[C@@H]2C[C@@H](O)CN2C(=O)[C@H](c2cc(-c3cnc(N4CCN(c5ccc6cc(-c7ccccc7O)nnc6c5)CC4)nc3)no2)C(C)C)cc1` [Compound 39], the “BRM HiBit Degradation Maximum (%)” value in assay [1] was “C (“C” indicates maximum degradation <50%)”. The Dmax in assay [2] (top dose 30 μM) was under 50%.
Take `Cc1ncsc1-c1ccc([C@H](C)NC(=O)[C@@H]2C[C@@H](O)CN2C(=O)[C@@H](c2cc(-c3cnc(N4CC(c5cc6cc(-c7ccccc7O)nnc6cc5Cl)C4)nc3)no2)C(C)C)cc1` [Compound 30]: in assay [1], the DC50 was under 10 nM and the “BRM HiBit Degradation Maximum (%)” value is given as “A (“A” indicates maximum degradation ≥75%)”. In assay [2], the DC50 was over 10 nM. Further, the Dmax in assay [2] (top dose 30 μM) was over 75%.
Turning to `Cc1ncsc1-c1ccc([C@H](C)NC(=O)[C@@H]2C[C@@H](O)CN2C(=O)[C@@H](c2cc(N3CCN([C@H]4CCN(c5ccc6nnc(-c7ccccc7O)cc6c5)CC4(F)F)CC3)no2)C(C)C)cc1` [Compound 123, (2S,4R)-1-((R)-2-(3-(4-((S)-3,3-difluoro-1-(3-(2-hydroxyphenyl)cinnolin-6-yl)piperidin-4-yl)piperazin-1-yl)isoxazol-5-yl)-3-methylbutanoyl)-4-hydroxy-N-((S)-1-(4-(4-methylthiazol-5-yl)phenyl)ethyl)pyrrolidine-2-carboxamide], in assay [1], the DC50 is under 10 nM and the “BRM HiBit Degradation Maximum (%)” value is reported as “A (“A” indicates maximum degradation ≥75%)”. For the same compound, the DC50 in assay [2] is under 10 nM. The Dmax in assay [2] (top dose 30 μM) is over 75%.
As to `Cc1ncsc1-c1ccc([C@H](C)NC(=O)[C@@H]2C[C@@H](O)CN2C(=O)[C@H](c2cc(-c3cnc(N4CCN(c5ccc6cc(-c7ccccc7O)nnc6c5)CC4)nc3)no2)C(C)C)cc1` [Compound 46], in assay [1], the DC50 is over 100 nM and the “BRM HiBit Degradation Maximum (%)” value is reported as “A (“A” indicates maximum degradation ≥75%)”. For the same compound, the “BRG1 HiBit Degradation Maximum (%)” value in assay [2] (top dose 30 μM) was “C (“C” indicates maximum degradation <50%)”.
On to `Cc1ncsc1-c1ccc([C@H](C)NC(=O)[C@@H]2C[C@@H](O)CN2C(=O)C(C(C)C)n2cc(N3CCCC(CN4CCN(c5ccc6cc(-c7ccccc7O)nnc6c5)CC4)C3)nn2)cc1` (stereo partly drawn) [Compound 261, (2S,4R)-4-hydroxy-1-(2-(4-(3-((4-(3-(2-hydroxyphenyl)cinnolin-7-yl)piperazin-1-yl)methyl)piperidin-1-yl)-1H-1,2,3-triazol-1-yl)-3-methylbutanoyl)-N-((S)-1-(4-(4-methylthiazol-5-yl)phenyl)ethyl)pyrrolidine-2-carboxamide], for which, in assay [1], the DC50 was over 10 nM and the “BRM HiBit Degradation Maximum (%)” value is listed as “A (“A” indicates maximum degradation ≥75%)”. For the same compound, the DC50 in assay [2] is over 10 nM. Also, the Dmax in assay [2] (top dose 30 μM) is over 75%.
Regarding `Cc1ncsc1-c1ccc([C@H](C)NC(=O)[C@@H]2C[C@@H](O)CN2C(=O)[C@@H](c2cc(N3CCCC4(CN(c5ccc6cc(-c7ccccc7O)nnc6c5)C4)C3)no2)C(C)C)cc1` [Compound 154, (2S,4R)-4-hydroxy-1-((R)-2-(3-(2-(3-(2-hydroxyphenyl)cinnolin-7-yl)-2,6-diazaspiro [3.5]nonan-6-yl)isoxazol-5-yl)-3-methylbutanoyl)-N-((S)-1-(4-(4-methylthiazol-5-yl)phenyl)ethyl)pyrrolidine-2-carboxamide], in assay [1], the DC50 is under 10 nM and the “BRM HiBit Degradation Maximum (%)” value is on record as “A (“A” indicates maximum degradation ≥75%)”. Moreover, the DC50 in assay [2] was under 10 nM. Besides, the Dmax in assay [2] (top dose 30 μM) is over 75%.
For `Cc1ncsc1-c1ccc([C@H](C)NC(=O)[C@@H]2C[C@@H](O)CN2C(=O)[C@H](C(C)C)n2cc(N3CC4(CC(c5ccc6cc(-c7ccccc7O)nnc6c5)C4)C3)nn2)cc1` [Compound 212, (2S,4R)-4-hydroxy-1-((S)-2-(4-(6-(3-(2-hydroxyphenyl)cinnolin-7-yl)-2-azaspiro[3.3]heptan-2-yl)-1H-1,2,3-triazol-1-yl)-3-methylbutanoyl)-N-((S)-1-(4-(4-methylthiazol-5-yl)phenyl)ethyl)pyrrolidine-2-carboxamide], in assay [1], the DC50 was under 10 nM and the “BRM HiBit Degradation Maximum (%)” value was “A (“A” indicates maximum degradation ≥75%)”. In addition, the DC50 in assay [2] was over 10 nM. The Dmax in assay [2] (top dose 30 μM) was over 75%.
Regarding `Cc1ncsc1-c1ccc([C@H](C)NC(=O)[C@@H]2C[C@@H](O)CN2C(=O)C(C(C)C)n2cc(N3CCCC4(CCN(c5ccc6nnc(-c7ccccc7O)cc6c5)CC4)C3)nn2)cc1` (stereo partly shown) [Compound 275], in assay [1], the DC50 was under 10 nM and the “BRM HiBit Degradation Maximum (%)” value is on record as “A (“A” indicates maximum degradation ≥75%)”. Moreover, the DC50 in assay [2] is over 10 nM. The Dmax in assay [2] (top dose 30 μM) is over 75%.
